Experimental findings from ChEMBL document CHEMBL6103588, “Promising thiazolidinedione-thiazole based multi-target and neuroprotective hybrids for Alzheimer's disease: Design, synthesis, in-vitro, in-vivo and in-silico studies” (Eur J Med Chem, 2025) are described below.

Data set [1] in a line: Acute toxicity in male Swiss albino mouse assessed as survival time at 900 mg/kg BW, po administered as single dose via gavage by up-and-down method. In kind it is organism-based. To be noted: in vivo.
Data set [2] relates to Mus musculus. The data set is described as follows: Antioxidant activity against scopolamine-induced Albino mouse assessed as increase in GSH-Px level in brain at 5 mg/kg measured after 24 hrs. It is filed as functional.
Data set [3] is described as follows: Neurotoxicity against human SH-SY5Y cells assessed as reduction in cell viability at 100 uM incubated for 24 hrs by MTT assay. It is filed as toxicity, cell-based. On the technique in general: Tetrazolium dyes change colour on reduction, which living cells bring about.
A further data set is described as follows: in vitro. The settings on record: PAMPA, pH 7.4. On the technique in general: PAMPA measures passive passage across an artificial lipid membrane.
The nature of data set [4]: Acute toxicity in male Swiss albino mouse assessed as mortality rate at 1500 mg/kg BW, po administered as single dose via gavage measured after 48 hrs by up-and-down method relative to control. In kind it is organism-based. To be noted: in vivo.
The nature of data set [5]: Acute toxicity in male Swiss albino mouse assessed as mortality rate at 650 mg/kg BW, po administered as single dose via gavage measured after 48 hrs by up-and-down method relative to control. It is filed as organism-based. To be noted: in vivo.
Data set [6] can be described thus: Acute toxicity in male Swiss albino mouse assessed as survival time at 650 mg/kg BW, po administered as single dose via gavage by up-and-down method. It is filed as organism-based. To be noted: in vivo.
Another data set concerns the target Beta-secretase 1 (Homo sapiens, UniProt P56817). Kind of data set: Inhibition of BACE-1 (unknown origin) 667-676- (2, 4-dinitrophenyl) Lys-Arg-Arg amide trifluoroacetate as substrate preincubated for 15 mins followed by substrate addition and measured after 2 hrs by fluorescence spectrometric analysis. The settings on record: read-out: IC50.
The target in data set [7] is Prostaglandin G/H synthase 1 (Homo sapiens, UniProt P23219). To be noted: read-out: IC50.
Prostaglandin G/H synthase 1, sequence (P23219 whole entry): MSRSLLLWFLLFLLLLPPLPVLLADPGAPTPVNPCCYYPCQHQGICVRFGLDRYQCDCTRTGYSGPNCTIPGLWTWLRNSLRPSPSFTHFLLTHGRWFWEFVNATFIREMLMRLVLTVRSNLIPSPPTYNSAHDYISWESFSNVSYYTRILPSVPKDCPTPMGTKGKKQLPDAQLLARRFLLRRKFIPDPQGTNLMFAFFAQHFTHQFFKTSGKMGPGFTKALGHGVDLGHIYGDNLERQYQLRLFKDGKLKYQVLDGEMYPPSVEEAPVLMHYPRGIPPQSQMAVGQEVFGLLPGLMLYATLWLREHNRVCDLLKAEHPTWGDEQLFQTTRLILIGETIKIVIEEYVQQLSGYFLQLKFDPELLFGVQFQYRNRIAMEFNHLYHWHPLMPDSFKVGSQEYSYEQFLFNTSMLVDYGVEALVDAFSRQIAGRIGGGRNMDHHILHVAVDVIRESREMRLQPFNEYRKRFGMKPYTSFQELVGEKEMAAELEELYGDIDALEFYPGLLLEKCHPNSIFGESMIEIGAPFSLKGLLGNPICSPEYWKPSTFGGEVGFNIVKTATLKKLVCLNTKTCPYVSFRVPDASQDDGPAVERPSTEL
A short description of data set [8]: Acute toxicity in male Swiss albino mouse assessed as ataxia at 450 mg/kg BW, po administered as single dose via gavage measured after 1 hrs by up-and-down method. It is filed as organism-based. To be noted: in vivo.
Data set [9] deals with Mus musculus. The data set is described as follows: Antioxidant activity against scopolamine-induced Albino mouse assessed as increase in SOD level in brain at 5 mg/kg measured after 24 hrs. It is filed as functional.
Data set [10] in a line: Acute toxicity in male Swiss albino mouse assessed as signs of distress at 1500 mg/kg BW, po administered as single dose via gavage measured after 48 hrs by up-and-down method. In kind it is organism-based. To be noted: in vivo.
A short description of data set [11]: Acute toxicity in male Swiss albino mouse assessed as survival time at 50 mg/kg BW, po administered as single dose via gavage by up-and-down method. It is filed as organism-based. The settings on record: in vivo.
The nature of data set [12]: Acute toxicity in male Swiss albino mouse assessed as signs of pain at 1500 mg/kg BW, po administered as single dose via gavage measured after 48 hrs by up-and-down method. In kind it is organism-based. The settings on record: in vivo.
Data set [13] is described as follows: Acute toxicity in male Swiss albino mouse assessed as piloerection at 450 mg/kg BW, po administered as single dose via gavage measured after 1 hrs by up-and-down method. It is filed as organism-based. To be noted: in vivo.
Data set [14] addresses T1, Prostaglandin G/H synthase 2 (Homo sapiens, UniProt P35354).
T1 sequence (P35354 whole entry): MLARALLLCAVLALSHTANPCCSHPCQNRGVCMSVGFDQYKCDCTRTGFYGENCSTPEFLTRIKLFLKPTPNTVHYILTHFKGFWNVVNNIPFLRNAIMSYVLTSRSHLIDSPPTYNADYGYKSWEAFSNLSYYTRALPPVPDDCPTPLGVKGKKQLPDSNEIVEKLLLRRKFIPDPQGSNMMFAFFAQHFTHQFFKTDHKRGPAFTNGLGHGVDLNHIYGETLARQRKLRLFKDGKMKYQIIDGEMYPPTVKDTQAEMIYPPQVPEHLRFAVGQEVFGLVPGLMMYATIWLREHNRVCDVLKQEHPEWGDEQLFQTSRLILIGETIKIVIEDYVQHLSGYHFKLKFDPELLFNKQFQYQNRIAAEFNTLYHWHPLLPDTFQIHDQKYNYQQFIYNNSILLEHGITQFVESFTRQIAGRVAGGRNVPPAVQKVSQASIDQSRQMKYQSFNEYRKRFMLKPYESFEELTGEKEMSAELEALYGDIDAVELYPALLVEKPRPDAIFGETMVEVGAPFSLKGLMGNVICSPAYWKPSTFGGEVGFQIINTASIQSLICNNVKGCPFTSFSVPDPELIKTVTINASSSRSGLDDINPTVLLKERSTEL
Description: Inhibition of COX-2 (unknown origin) using arachidonic acid as substrate and in presence of TMPD preincubated for 5 mins followed by substrate addition and measured after 5 mins by UV visible spectrophotometric analysis

Data set [15] is described as follows: Acute toxicity in male Swiss albino mouse assessed as signs of pain at 1200 mg/kg BW, po administered as single dose via gavage measured after 20 mins by up-and-down method. The settings on record: in vivo. It is filed as organism-based.
Data set [16] in a line: Neurotoxicity against human SH-SY5Y cells assessed as reduction in cell viability at 100 uM incubated for 24 hrs by MTT assay relative to control. It is filed as toxicity, cell-based.
A short description of data set [17]: Acute toxicity in male Swiss albino mouse assessed as mortality treated po single dose via gavage measured after 48 hrs by up-and-down method. To be noted: in vivo. It is filed as organism-based.
For data set [18], the target named is T2, Amine oxidase [flavin-containing] A (Homo sapiens, UniProt P21397).
T2 sequence (P21397 whole entry): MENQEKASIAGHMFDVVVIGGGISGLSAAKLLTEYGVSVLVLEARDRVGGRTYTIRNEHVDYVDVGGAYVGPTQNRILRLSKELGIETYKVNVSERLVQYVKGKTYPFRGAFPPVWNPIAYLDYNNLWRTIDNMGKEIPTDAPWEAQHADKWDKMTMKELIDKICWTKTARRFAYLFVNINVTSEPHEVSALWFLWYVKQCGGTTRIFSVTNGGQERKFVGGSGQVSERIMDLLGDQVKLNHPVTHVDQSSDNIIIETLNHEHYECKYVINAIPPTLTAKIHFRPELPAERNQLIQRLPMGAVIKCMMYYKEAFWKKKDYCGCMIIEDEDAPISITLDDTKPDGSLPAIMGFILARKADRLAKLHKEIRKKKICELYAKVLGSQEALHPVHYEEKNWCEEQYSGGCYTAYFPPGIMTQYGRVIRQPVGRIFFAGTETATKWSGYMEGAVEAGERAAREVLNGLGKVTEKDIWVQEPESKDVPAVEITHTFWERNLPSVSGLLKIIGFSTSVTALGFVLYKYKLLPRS
Kind of data set: Inhibition of human MAO-A using tyramine/benzylamine as substrate measured after 30 mins by fluorometric assay. To be noted: read-out: IC50.

Molecules are shown by their SMILES.

Beta-secretase 1, sequence (P56817 whole entry): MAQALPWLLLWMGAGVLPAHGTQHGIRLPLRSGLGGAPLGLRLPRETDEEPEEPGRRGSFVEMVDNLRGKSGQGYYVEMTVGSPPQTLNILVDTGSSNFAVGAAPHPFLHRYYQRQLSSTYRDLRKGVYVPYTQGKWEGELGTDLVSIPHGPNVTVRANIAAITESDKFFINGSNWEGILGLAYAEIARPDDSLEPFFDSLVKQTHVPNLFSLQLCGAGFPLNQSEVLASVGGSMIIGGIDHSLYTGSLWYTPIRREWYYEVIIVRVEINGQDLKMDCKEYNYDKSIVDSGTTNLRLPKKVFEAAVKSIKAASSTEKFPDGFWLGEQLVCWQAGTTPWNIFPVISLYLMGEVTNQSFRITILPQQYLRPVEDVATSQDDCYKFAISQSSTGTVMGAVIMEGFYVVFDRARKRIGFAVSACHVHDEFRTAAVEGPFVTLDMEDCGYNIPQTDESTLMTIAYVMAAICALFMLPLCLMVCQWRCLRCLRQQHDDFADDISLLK
Description for in vitro: Permeability of compound in PBS at pH 7.4 incubated for 20 hrs by PAMPA-BBB assay

Consider `COc1cc(/C=C/C(=O)Nc2ccc3sc(NCN4C(=O)CSC4=O)nc3c2)ccc1O`, for which the Time was 2 h in data set [1], 18 h in [6] and above 48 h in [11]. The Activity was 230 U/ml in the data set with Mus musculus [2]; “Toxic” in [3]; “Toxic” in data set [8]; 95.03 U/ml in the data set with Mus musculus [9]; “Toxic” in [10]; “Toxic” in data set [12]. Also, the Activity result in data set [13] is “Toxic”; in [15], “Toxic”; in data set [16] it was 76%. Further, the apparent permeability coefficient (Papp) at 20 h in the data set “in vitro” was determined as 5.7 ×10⁻⁶ cm/s. In addition, the mortality at 48 h in data set [4] was found to be 100%; in [5], 28.6%. Besides, the IC50 on Beta-secretase 1 was 2.42 µM; in [7], 60.4 µM; in data set [14], 0.187 µM; in data set [18], 14.5 µM. Moreover, the LD100 in data set [17] (po, 48 h) was 1500 mg/kg. Also, the LD50 at 48 h in [17] (male, Swiss albino) worked out at 800 mg/kg.

Usually Papp stands for the rate of passage across a membrane or cell layer, normalised by area and donor concentration. Low values mean poor permeation, high ones ready permeation. As usually defined, the mortality is the share of the test organisms that died. A word on the IC50: it is the midpoint of a concentration-inhibition curve. What is called LD50 is the dose at which mortality reaches 50%.
